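Exposure lasted 48 hours, with cells grown in 96-well plates and compounds tested at five concentrations. GI50 is the concentration that inhibits growth by half. The concentration for full growth arrest is given as TGI.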
Key:
Experiment in all cases: DTP human tumour cell line panel, 48 h
UACC-257 melanoma = tested on: UACC-257 melanoma
SF-539 CNS = tested on: SF-539 CNS
HCC-2998 colon = tested on: HCC-2998 colon
MCF7 breast = tested on: MCF7 breast
MOLT-4 leukemia = tested on: MOLT-4 leukemia
HOP-62 NSCLC = tested on: HOP-62 NSCLC
OVCAR-5 ovarian = tested on: OVCAR-5 ovarian
UACC-62 melanoma = tested on: UACC-62 melanoma
M14 melanoma = tested on: M14 melanoma
ACHN renal = tested on: ACHN renal

| SMILES | GI50 (UACC-257 melanoma) [µM] | TGI (UACC-257 melanoma) [µM] | GI50 (SF-539 CNS) [µM] | TGI (SF-539 CNS) [µM] | GI50 (HCC-2998 colon) [µM] | TGI (HCC-2998 colon) [µM] | GI50 (MCF7 breast) [µM] | TGI (MCF7 breast) [µM] | GI50 (MOLT-4 leukemia) [µM] | TGI (MOLT-4 leukemia) [µM] | GI50 (HOP-62 NSCLC) [µM] | TGI (HOP-62 NSCLC) [µM] | GI50 (OVCAR-5 ovarian) [µM] | TGI (OVCAR-5 ovarian) [µM] | GI50 (UACC-62 melanoma) [µM] | TGI (UACC-62 melanoma) [µM] | GI50 (M14 melanoma) [µM] | TGI (M14 melanoma) [µM] | GI50 (ACHN renal) [µM] | TGI (ACHN renal) [µM] |
| --- | --- | --- | --- | --- | --- | --- | --- | --- | --- | --- | --- | --- | --- | --- | --- | --- | --- | --- | --- | --- |
| Nc1c(C(=O)c2cccc(C#CCN3CCOCC3)c2)cnn1-c1ccc(F)cc1 | > 18.6 | > 25 | > 25 | > 25 | > 25 | > 25 | 11.7 | > 25 | > 25 | > 25 | > 25 | > 25 | > 25 | > 25 | 19.6 | > 25 | > 25 | > 25 | > 25 | > 25 |
| O=C1c2cc3c(cc2[C@@H]2[C@H]1c1ccc([N+](=O)[O-])cc1C(=O)N2CCCCl)OCO3 | < 0.01 |  | < 0.01 |  | 0.0164 | 0.568 | < 0.01 |  | > 100 | > 100 | < 0.01 |  | < 0.0144 |  | < 0.01 | < 0.0171 | < 0.01 | < 0.01 | < 0.01 | < 0.01 |
| CC1(C)CC(OCCCC[P+](c2ccccc2)(c2ccccc2)c2ccccc2)CC(C)(C)N1O | 0.307 | 0.977 | 0.327 | 10.2 | 0.287 | 3.19 | 0.203 | 1.2 | 0.34 | 4.12 | 0.44 | 2.1 | 0.481 | 8.42 | 0.392 | 1.64 | 0.433 | 1.9 | 2.39 | 7.28 |
| O=C(O)CCCSc1nc2ccccc2s1 |  | > 100 |  | > 100 |  | > 100 |  | > 100 |  | > 100 |  | > 100 |  | > 100 |  | > 100 |  | > 100 |  | > 100 |
| Nc1ccn(C2CC(O)C(CO)O2)c(=O)n1 (stereo not given) | > 5000 | > 5000 | > 5000 | > 5000 | > 5000 | > 5000 | > 5000 | > 5000 | > 5000 | > 5000 | > 5000 | > 5000 | > 5000 | > 5000 | > 5000 | > 5000 | > 5000 | > 5000 | > 5000 | > 5000 |
| CCCCCCCCCCCC[n+]1ccccc1 | 1.23 | 3.97 | 1.47 | 4.9 | 1.37 | 5.29 | 1.25 | 9.38 | 1.17 | 3.66 | 1.9 | 5.57 | 1.57 | 7.67 | 1.17 | 2.81 | 0.835 | 2.82 | 2.09 | 14.2 |
